From patent publication US20260131009A1, “BIFUNCTIONAL PI3K-ALPHA INHIBITORS AND USES THEREOF” (Relay Therapeutics, Inc., priority 2021, published 2026) come the findings set out here.

One assay addresses PI3Kα (Homo sapiens, UniProt P42336, H1047R). The assay is described as follows: ADP-Glo IC50 assay. The conditions noted are these: class symbols; key not given. Format: biochemical.
Another assay has as its system MCF10A. The assay is described as follows: MCF10A IC50 assay. Type of assay: cell-based. As to conditions: Homo sapiens, MCF-10A; class symbols; key not given. The method, boiled down:
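MCF10A cells overexpressing hotspot PIK3CA mutations were seeded at 5,000 per well in supplemented DMEM/F12 and adhered overnight (37 °C, 5% CO₂). Compounds were added acoustically as 12-dose 1:3 series, in duplicate, for 2 hours. Cells were lysed 60 min, then incubated 4 hours at room temperature with CisBio phospho-AKT (Ser473) HTRF antibodies and read on an Envision 2105. IC₅₀ for AKT phosphorylation came from Genedata software and was reported as binned categories.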

pIC50: −log10 of the molar value. Bounds are passed on as bounds.

Chain of PI3Kα (P42336 whole entry H1047R): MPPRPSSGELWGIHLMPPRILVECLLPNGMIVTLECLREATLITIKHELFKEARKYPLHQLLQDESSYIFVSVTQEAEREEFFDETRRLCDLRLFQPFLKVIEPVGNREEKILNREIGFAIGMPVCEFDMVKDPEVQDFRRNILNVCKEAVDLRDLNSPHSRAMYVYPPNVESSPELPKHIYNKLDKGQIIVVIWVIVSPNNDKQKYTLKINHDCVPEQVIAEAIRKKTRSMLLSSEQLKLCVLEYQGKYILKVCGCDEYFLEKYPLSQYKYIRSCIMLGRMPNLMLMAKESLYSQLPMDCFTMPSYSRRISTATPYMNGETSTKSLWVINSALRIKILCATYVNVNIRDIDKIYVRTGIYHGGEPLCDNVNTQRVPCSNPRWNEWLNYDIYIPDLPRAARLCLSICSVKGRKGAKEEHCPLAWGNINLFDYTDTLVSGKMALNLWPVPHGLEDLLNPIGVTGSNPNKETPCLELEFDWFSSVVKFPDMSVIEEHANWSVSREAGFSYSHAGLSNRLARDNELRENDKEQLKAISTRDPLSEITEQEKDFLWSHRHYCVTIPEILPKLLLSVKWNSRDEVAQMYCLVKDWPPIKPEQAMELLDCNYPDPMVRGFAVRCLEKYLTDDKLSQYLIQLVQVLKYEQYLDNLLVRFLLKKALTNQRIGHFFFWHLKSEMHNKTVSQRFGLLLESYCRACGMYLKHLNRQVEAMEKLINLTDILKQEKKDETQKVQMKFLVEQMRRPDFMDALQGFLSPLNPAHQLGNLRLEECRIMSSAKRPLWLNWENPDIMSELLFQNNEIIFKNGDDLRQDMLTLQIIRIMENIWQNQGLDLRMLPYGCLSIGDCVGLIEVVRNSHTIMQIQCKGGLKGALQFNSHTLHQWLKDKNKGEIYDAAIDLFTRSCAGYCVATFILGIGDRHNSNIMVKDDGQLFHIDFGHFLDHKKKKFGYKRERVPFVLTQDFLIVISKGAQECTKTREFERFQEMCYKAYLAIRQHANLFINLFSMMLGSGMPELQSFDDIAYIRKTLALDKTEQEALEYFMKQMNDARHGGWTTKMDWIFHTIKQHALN
Chain of PI3Kα (P27986 whole entry partner): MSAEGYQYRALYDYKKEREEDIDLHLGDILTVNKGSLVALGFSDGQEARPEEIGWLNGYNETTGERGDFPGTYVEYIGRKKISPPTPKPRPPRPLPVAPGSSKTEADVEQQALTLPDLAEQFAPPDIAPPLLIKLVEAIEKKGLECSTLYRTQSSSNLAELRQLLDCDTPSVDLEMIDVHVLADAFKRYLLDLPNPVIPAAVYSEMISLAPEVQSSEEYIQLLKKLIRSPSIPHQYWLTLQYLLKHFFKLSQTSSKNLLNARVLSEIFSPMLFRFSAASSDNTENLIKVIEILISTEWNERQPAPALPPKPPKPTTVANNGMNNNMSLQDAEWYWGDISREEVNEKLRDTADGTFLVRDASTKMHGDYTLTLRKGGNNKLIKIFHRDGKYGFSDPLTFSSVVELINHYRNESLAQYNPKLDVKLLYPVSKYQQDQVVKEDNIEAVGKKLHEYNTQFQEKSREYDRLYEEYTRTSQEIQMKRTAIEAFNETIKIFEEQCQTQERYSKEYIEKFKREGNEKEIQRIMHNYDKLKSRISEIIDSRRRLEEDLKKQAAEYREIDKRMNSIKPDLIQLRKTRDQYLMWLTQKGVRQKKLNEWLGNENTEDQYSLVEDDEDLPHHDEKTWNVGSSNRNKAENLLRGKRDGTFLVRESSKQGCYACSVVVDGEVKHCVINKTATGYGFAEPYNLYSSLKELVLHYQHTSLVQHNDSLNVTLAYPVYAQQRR

As for `O=C(O)CCCCCCCCCNC(=O)c1cnc(Nc2cc(F)ccc2Cl)c(NC(=O)c2csc3ccccc23)c1` [Example I-72], the pIC50 is greater than 7.00 against PI3Kα and 4.44 to 5.00 in the assay on MCF10A.

On to `Cc1ccccc1Nc1ncc(C(=O)NCCCCCCCCCC(=O)N[C@H](C(=O)N2C[C@H](O)C[C@H]2C(=O)NCc2ccc(-c3scnc3C)cc2)C(C)(C)C)cc1NC(=O)c1csc2ccccc12` [Example I-10], for which the pIC50 against PI3Kα is 6.30 to 7.00; in the assay with MCF10A, 4.44 to 5.00.

As for `Cc1ccccc1Nc1ncc(C(=O)NCCCCCCCCCNc2cccc3c2C(=O)N(C2CCC(=O)NC2=O)C3=O)cc1NC(=O)c1csc2ccccc12` (stereo not drawn) [Example I-31], the pIC50 at PI3Kα was 6.30 to 7.00; in the assay with MCF10A it was 4.44 to 5.00.

Take `O=C1CCC(N2Cc3cc(C(=O)NCCCCCCCCCNC(=O)c4cc(NC(=O)c5cc(F)cc(C(F)(F)F)c5)c5c(c4)C(=O)N[C@H]5c4cc(F)ccc4Cl)ccc3C2=O)C(=O)N1` (stereo partly drawn) [Example I-67]: the values for the pIC50 against PI3Kα and in the assay with MCF10A were greater than 7.00 and 4.44 to 5.00, respectively.

On to `Cc1ccccc1Nc1ncc(C(=O)NCCCCCCCC(=O)NCc2ccc3c(c2)CN(C2CCC(=O)NC2=O)C3=O)cc1NC(=O)c1csc2ccccc12` (stereo not drawn) [Example I-6], for which the negative logarithm of the IC50 (pIC50) at PI3Kα was 6.30 to 7.00; in the assay on MCF10A, 4.44 to 5.00.

Take `Cc1ccccc1Nc1ncc(C(=O)NCCCCCCCCCC(=O)NCc2ccc3c(c2)CN(C2CCC(=O)NC2=O)C3=O)cc1NC(=O)c1csc2ccccc12` (stereo not drawn) [Example I-3]: the pIC50 against PI3Kα is 6.30 to 7.00; with MCF10A, 4.44 to 5.00.

One may read the pIC50 as −log10 of the IC50, conventionally taken in molar units.
